Calls of active or inactive are those of the source. The rule behind the calls is not given here.
Key:
Escherichia coli [1] = assay: Potentiation of erythromycin-induced antibacterial activity against wild type Escherichia coli BW25113 assessed as erythromycin MIC at 256 ug/ml incubated for 18 hrs under aerobic condition by checkerboard titration assay (reference value: 128 ug/ml); assay type: functional; conditions: dose 256 µg/ml
Escherichia coli [2] = assay: Potentiation of rifampicin-induced antibacterial activity against wild type Escherichia coli BW25113 assessed as rifampicin MIC at 256 ug/ml incubated for 18 hrs under aerobic condition by checkerboard titration assay (reference value: 16 ug/ml); assay type: functional; conditions: dose 256 µg/ml
Escherichia coli [3] = assay: Potentiation of TPP-induced antibacterial activity against wild type Escherichia coli BW25113 assessed as TPP MIC at 128 ug/ml incubated for 18 hrs under aerobic condition by checkerboard titration assay (reference value: 1024 ug/ml); assay type: functional; conditions: dose 128 µg/ml
Escherichia coli [4] = assay: Potentiation of chloramphenicol-induced antibacterial activity against wild type Escherichia coli BW25113 assessed as chloramphenicol MIC at 256 ug/ml incubated for 18 hrs under aerobic condition by checkerboard titration assay (reference value: 16 ug/ml); assay type: functional; conditions: dose 256 µg/ml
Escherichia coli [5] = assay: Potentiation of TPP-induced antibacterial activity against AcrB deficient Escherichia coli BW25113 assessed as TPP MIC at 512 ug/ml incubated for 18 hrs under aerobic condition by checkerboard titration assay (reference value: 256 ug/ml); assay type: functional; conditions: dose 512 µg/ml
Escherichia coli [6] = assay: Potentiation of chloramphenicol-induced antibacterial activity against wild type Escherichia coli BW25113 assessed as chloramphenicol MIC at 128 ug/ml incubated for 18 hrs under aerobic condition by checkerboard titration assay (reference value: 16 ug/ml); assay type: functional; conditions: dose 128 µg/ml
Escherichia coli [7] = assay: Potentiation of rifampicin-induced antibacterial activity against wild type Escherichia coli BW25113 assessed as rifampicin MIC at 128 ug/ml incubated for 18 hrs under aerobic condition by checkerboard titration assay (reference value: 16 ug/ml); assay type: functional; conditions: dose 128 µg/ml
Escherichia coli [8] = assay: Potentiation of TPP-induced antibacterial activity against wild type Escherichia coli BW25113 assessed as fold reduction in TPP MIC at 256 ug/ml incubated for 18 hrs under aerobic condition by checkerboard titration assay relative to TPP MIC alone; assay type: functional; conditions: dose 256 µg/ml
Escherichia coli [9] = assay: Potentiation of erythromycin-induced antibacterial activity against wild type Escherichia coli BW25113 assessed as erythromycin MIC at 128 ug/ml incubated for 18 hrs under aerobic condition by checkerboard titration assay (reference value: 128 ug/ml); assay type: functional; conditions: dose 128 µg/ml
Escherichia coli [10] = assay: Potentiation of TPP-induced antibacterial activity against wild type Escherichia coli BW25113 assessed as TPP MIC at 256 ug/ml incubated for 18 hrs under aerobic condition by checkerboard titration assay (reference value: 1024 ug/ml); assay type: functional; conditions: dose 256 µg/ml
Cell membrane [11] = assay: Induction of outer membrane permeabilization in wild type Escherichia coli BW25113 assessed as increase in nitrocefin hydrolysis at 512 ug/ml measured for 30 mins in presence of CCCP by spectrophotometry analysis; assay type: subcellular; conditions: dose 512.0 µg/ml
Cell membrane [12] = assay: Disruption of inner membrane potential in wild type Escherichia coli BW25113 at 512 ug/ml preincubated for 10 mins followed by glucose stimulation and CCCP addition by DiOC2 probe based fluorimetric analysis; assay type: subcellular; conditions: dose 512.0 µg/ml
Escherichia coli [13] = assay: Potentiation of chloramphenicol-induced antibacterial activity against AcrB deficient Escherichia coli BW25113 assessed as chloramphenicol MIC at 512 ug/ml incubated for 18 hrs under aerobic condition by checkerboard titration assay (reference value: 2 ug/ml); assay type: functional; conditions: dose 512 µg/ml
Escherichia coli [14] = assay: Potentiation of chloramphenicol-induced antibacterial activity against wild type Escherichia coli BW25113 assessed as chloramphenicol MIC at 512 ug/ml incubated for 18 hrs under aerobic condition by checkerboard titration assay (reference value: 16 ug/ml); assay type: functional; conditions: dose 512 µg/ml
Escherichia coli [15] = assay: Potentiation of erythromycin-induced antibacterial activity against AcrB deficient Escherichia coli BW25113 assessed as erythromycin MIC at 512 ug/ml incubated for 18 hrs under aerobic condition by checkerboard titration assay (reference value: 32 ug/ml); assay type: functional; conditions: dose 512 µg/ml
Escherichia coli [16] = assay: (§1) Antibacterial activity against Wild type Escherichia coli BW25113 assessed as inhibition of AcrB efflux pump by mesuring the glucose-induced nile red efflux at 100 uM preincubated with CCCP for 15 mins followed by compound addition after 15 mins nile red added and incubated for 3 hrs in shaker by fluorimetric analysis; assay type: functional, organism-based; conditions: time 195.0 min
Escherichia coli [17] = assay: Potentiation of TPP-induced antibacterial activity against wild type Escherichia coli BW25113 assessed as TPP MIC at 512 ug/ml incubated for 18 hrs under aerobic condition by checkerboard titration assay (reference value: 1024 ug/ml); assay type: functional; conditions: dose 512 µg/ml
Escherichia coli [18] = assay: Potentiation of erythromycin-induced antibacterial activity against wild type Escherichia coli BW25113 assessed as erythromycin MIC at 512 ug/ml incubated for 18 hrs under aerobic condition by checkerboard titration assay (reference value: 128 ug/ml); assay type: functional; conditions: dose 512 µg/ml
Escherichia coli [19] = assay: as §1, with “500” for “100”; assay type: functional, organism-based; conditions: time 195.0 min
Escherichia coli [20] = assay: Potentiation of chloramphenicol-induced antibacterial activity against AcrB deficient Escherichia coli BW25113 assessed as chloramphenicol MIC at 256 ug/ml incubated for 18 hrs under aerobic condition by checkerboard titration assay (reference value: 2 ug/ml); assay type: functional; conditions: dose 256 µg/ml
Escherichia coli [21] = assay: Potentiation of erythromycin-induced antibacterial activity against AcrB deficient Escherichia coli BW25113 assessed as erythromycin MIC at 256 ug/ml incubated for 18 hrs under aerobic condition by checkerboard titration assay (reference value: 32 ug/ml); assay type: functional; conditions: dose 256 µg/ml
Escherichia coli [22] = assay: Potentiation of TPP-induced antibacterial activity against AcrB deficient Escherichia coli BW25113 assessed as TPP MIC at 256 ug/ml incubated for 18 hrs under aerobic condition by checkerboard titration assay (reference value: 256 ug/ml); assay type: functional; conditions: dose 256 µg/ml
Escherichia coli [23] = assay: Potentiation of chloramphenicol-induced antibacterial activity against wild type Escherichia coli BW25113 assessed as fold reduction in chloramphenicol MIC at 256 ug/ml incubated for 18 hrs under aerobic condition by checkerboard titration assay relative to chloramphenicol MIC alone; assay type: functional; conditions: dose 256 µg/ml
Escherichia coli [24] = assay: Potentiation of rifampicin-induced antibacterial activity against wild type Escherichia coli BW25113 assessed as rifampicin MIC at 512 ug/ml incubated for 18 hrs under aerobic condition by checkerboard titration assay (reference value: 16 ug/ml); assay type: functional; conditions: dose 512 µg/ml
Escherichia coli [25] = assay: Potentiation of chloramphenicol-induced antibacterial activity against wild type Escherichia coli BW25113 assessed as fold reduction in chloramphenicol MIC at 128 ug/ml incubated for 18 hrs under aerobic condition by checkerboard titration assay relative to chloramphenicol MIC alone; assay type: functional; conditions: dose 128 µg/ml
Escherichia coli [26] = assay: Antibacterial activity against wild type Escherichia coli BW25113 assessed as inhibition of bacterial growth at 256 ug/ml after 18 hrs by microtitre broth dilution assay; assay type: functional, organism-based; conditions: dose 256.0 µg/ml
Escherichia coli [27] = assay: Potentiation of chloramphenicol-induced antibacterial activity against AcrB deficient Escherichia coli BW25113 assessed as chloramphenicol MIC at 128 ug/ml incubated for 18 hrs under aerobic condition by checkerboard titration assay (reference value: 2 ug/ml); assay type: functional; conditions: dose 128 µg/ml
Escherichia coli [28] = assay: Potentiation of erythromycin-induced antibacterial activity against AcrB deficient Escherichia coli BW25113 assessed as erythromycin MIC at 128 ug/ml incubated for 18 hrs under aerobic condition by checkerboard titration assay (reference value: 32 ug/ml); assay type: functional; conditions: dose 128 µg/ml
Escherichia coli [29] = assay: Potentiation of TPP-induced antibacterial activity against AcrB deficient Escherichia coli BW25113 assessed as TPP MIC at 128 ug/ml incubated for 18 hrs under aerobic condition by checkerboard titration assay (reference value: 256 ug/ml); assay type: functional; conditions: dose 128 µg/ml
Escherichia coli [30] = assay: Antibacterial activity against AcrB deficient Escherichia coli BW25113 assessed as inhibition of bacterial growth at 256 ug/ml after 18 hrs by microtitre broth dilution assay; assay type: functional, organism-based; conditions: dose 256.0 µg/ml
Escherichia coli [31] = assay: Potentiation of erythromycin-induced antibacterial activity against wild type Escherichia coli BW25113 assessed as fold reduction in erythromycin MIC at 128 ug/ml incubated for 18 hrs under aerobic condition by checkerboard titration assay relative to erythromycin MIC alone; assay type: functional; conditions: dose 128 µg/ml

Compound	MIC (Escherichia coli [1])	MIC (Escherichia coli [2])	MIC (Escherichia coli [3])	MIC (Escherichia coli [4])	MIC (Escherichia coli [5])	MIC (Escherichia coli [6])	MIC (Escherichia coli [7])	fold change (FC) (Escherichia coli [8])	MIC (Escherichia coli [9])	MIC (Escherichia coli [10])	Activity (Cell membrane [11])	Activity (Cell membrane [12])	MIC (Escherichia coli [13])	MIC (Escherichia coli [14])	MIC (Escherichia coli [15])	Activity (Escherichia coli [16])	MIC (Escherichia coli [17])	MIC (Escherichia coli [18])	MIC (Escherichia coli [20])	MIC (Escherichia coli [21])	also measured
CCCCCCNC(=O)c1cc(OCc2ccccc2)c2ccccc2c1	128 µg/mL	4 µg/mL	1020 µg/mL	4 µg/mL	256 µg/mL	8 µg/mL	16 µg/mL	4	128 µg/mL	256 µg/mL	Active	Active	2 µg/mL	–	–	–	–	–	–	–	–
O=C(NC1CCCCC1)c1cc(OCc2ccccc2)c2ccccc2c1	64 µg/mL	16 µg/mL	–	16 µg/mL	256 µg/mL	–	–	–	–	1020 µg/mL	–	–	2 µg/mL	16 µg/mL	32 µg/mL	Active	1020 µg/mL	32 µg/mL	–	–	–
NC(=O)c1cc(OCCNCc2ccc(O)cc2)c2ccccc2c1	128 µg/mL	8 µg/mL	1020 µg/mL	4 µg/mL	–	8 µg/mL	8 µg/mL	4	128 µg/mL	256 µg/mL	inactive	inactive	–	–	–	–	–	–	2 µg/mL	32 µg/mL	Activity (Escherichia coli [19]): inactive; MIC (Escherichia coli [22]): 256 µg/mL; fold change (FC) (Escherichia coli [23]): 4
CC(C)CCOc1cc(C(N)=O)cc2ccccc12	64 µg/mL	16 µg/mL	–	8 µg/mL	256 µg/mL	–	–	–	–	512 µg/mL	–	–	2 µg/mL	4 µg/mL	32 µg/mL	–	256 µg/mL	32 µg/mL	–	–	MIC (Escherichia coli [24]): 16 µg/mL
NC(=O)c1cc(OCCNC2CCCCC2)c2ccccc2c1	–	–	1020 µg/mL	–	–	4 µg/mL	8 µg/mL	–	16 µg/mL	–	Active	inactive	–	–	–	Active	–	–	1 µg/mL	8 µg/mL	fold change (FC) (Escherichia coli [25]): 8; Activity (Escherichia coli [26]): Active; MIC (Escherichia coli [27]): 2 µg/mL; MIC (Escherichia coli [28]): 16 µg/mL; MIC (Escherichia coli [29]): 256 µg/mL; Activity (Escherichia coli [30]): Active; MIC (Escherichia coli [22]): 128 µg/mL; fold change (FC) (Escherichia coli [31]): 8
